Some test systems named below: SARS-COV-2 XBB1.5; SARS-COV-2 BA.1; SARS-COV-2 BA.5; SARS-COV-2 BA.2; SARS-COV-2 XBB.
What all share (type): cell-based
Experiment [1] deals with original WA1 viral strain of SARS-COV-2. Description: in vitro infectivity of epithelial cells expressing ACE-2 and TMPRSS-2, virus-NP protein in culture media. As to conditions: MOI 0.01.

For the substance hemin, in the experiment on SARS-COV-2 XBB1.5, the “replication of SARS-COV-2 XBB1.5” value is recorded as “significantly suppressed replication”. In the experiment on SARS-COV-2 BA.1, the “cellular protection against SARS-COV-2 BA.1 infection” value is given as “protected cells” and the “inhibition of SARS-COV-2 BA.1 (dose response)” value was “dose-dependent inhibition”. The “replication of SARS-COV-2 BA.5” value with SARS-COV-2 BA.5 is on record as “significantly suppressed replication”. Also, in experiment [1], the “SARS-COV-2 infection, original WA1 viral strain” value was “markedly suppressed”. Further, in the experiment with SARS-COV-2 BA.2, the “replication of SARS-COV-2 BA.2” value is given as “significantly suppressed replication”. Also, in the experiment with SARS-COV-2 XBB, the “replication of SARS-COV-2 XBB” value is “significantly suppressed replication”.

The values above are taken from patent publication US12029814B1, “Formulation of ear drops and methods for delivery thereof for treating upper respiratory infections” (priority 2023, dated 2024).
